The text below walks through data of publication PMC8751734 (Cell Chemical Biology, 2022).

For this assay, the target named is SARS-CoV-2 PL^pro (Severe acute respiratory syndrome coronavirus 2, UniProt P0DTD1). The assay is classed as biochemical.

Each structure is given as a SMILES string.

`Nc1ccc2cc3ccc(N)cc3nc2c1.O=S(=O)(O)O` [acridine-3,6-diamine sulfate]: the “dose-dependent inhibition of PL^pro, compared with ACF” value was “less active than the parent compound”.
Regarding `CN(C)c1ccc2cc3ccc(N(C)C)cc3nc2c1` [acridine orange base], the “dose-dependent inhibition of PL^pro, compared with ACF” value is “less active than the parent compound”.
